Data: patent US20250389725A1, “METHOD FOR DETECTION OF SULFUR-CONTAINING AMINO ACID AS BIOMARKER FOR GLIOBLASTOMA USING NOVEL FLUORESCENT PROBE AND FLUORESCENCE-GUIDED SURGERY IMAGING APPLICATION THEREOF” (UNIVERSITY-INDUSTRY COOPERATION GROUP OF KYUNG HEE …, priority 2023, published 2025)

How the values were obtained:
Assay type in all cases: cell-based
[1] = system: cervical cancer cells (HeLa); experiment: CCK-8 cell viability (toxicity), HeLa; details: CCK-8, compared to leaving groups with similar structures
Method: (§1) Specifically, for cell preparation, approximately 5×10^3 cells each of glioblastoma cells (U87MG), hepatoma cells (Huh7), cervical cancer cells (HeLa), and skin cancer cells (B16F10) were treated in a 96-well clear plate (SPL Life Science, Ref. of Korea), cultured at 37° C. for 24 hours, and then treated with Compound 1 (NPO-o-Pyr, 10 μM) and analyzed using a CCK-8 assay kit (Dofindo, Japan) according to the manufacturer's instructions. Absorbance levels were analyzed at a wavelength of 490 nm by a microplate reader (SpctraMax Gemini EM, Molecular Devices, US). 2-Hydroxypyridine and various leaving groups with similar structures thereto were treated in U87MG, Huh7, HeLa, and B16F10 cells, and the cell viability was measured, which was shown in FIG. 12.

[2] = system: skin cancer cells (B16F10); experiment: CCK-8 cell viability (toxicity), B16F10; details: B16F10, CCK-8, compared to leaving groups with similar structures
Method: as §1

[3] = system: glioblastoma cells (U87MG); experiment: CCK-8 cell viability (toxicity), U87MG; details: CCK-8, compared to leaving groups with similar structures
Method: as §1

[4] = system: hepatoma cells (Huh7); experiment: CCK-8 cell viability (toxicity), Huh7; details: Huh7, CCK-8, compared to leaving groups with similar structures
Method: as §1

Measured: toxicity (cell viability)

Oc1ccccn1 [2-hydroxypyridine]
very low: all assays above
